Converted amounts (≈) assume the structure as drawn. Counter-ions that a name gives are not always drawn. Like-named read-outs stand apart in the source and are kept apart here.
Experiments:
Assay type in all cases: cell-based
[1] = test system: Pseudomonas aeruginosa (ESR strain 981, NTC 10662, ATCC 25668); test: MIC assay, in-vitro anti P. aeruginosa activity; details: antibiotics; for MIC90: Pseudomonas aeruginosa, ATCC25668
Experimental: To exemplify the concept of the present invention, the in vitro activity of three novel plant extracts melaleuca oil, manuka oil, and black walnut hull extract, and blends of these extracts, were tested against an isolate of Pseudomonas aeruginosa from a reference library. MIC90 refers to the minimum inhibitory concentration required to inhibit the growth of 90% of the organisms. The methods and materials used for this preliminary study are outlined in Example 3.
• The methodology used in this study is based on standard MIC assay methods referenced in numerous publications. • Each of the extracts was serially diluted to give 11 different concentrations. The diluted samples were then incubated with the Pseudomonas aeruginosa (ESR strain 981, NTC 10662, ATCC 25668, DSM 46358, NC/MB 13063). The MICs were determined as the lowest concentration of each extract that inhibits growth of the bacteria as determined by measurement of OD650 nm using a VersaMax 96 well plate reader.
• Tryptic soy agar base (Bacto Difco Media Cat. No. 236940, Becton Dickinson and company). • Mueller II broth cation-adjusted (BBL media Cat. No. 212332, Becton Dickinson and company).
• a) The isolate of Pseudomonas aeruginosa was streaked from −70° C. cryostocks onto Tryptic Soy Agar (TSA) plates and incubated for 24-48 hrs at 37° C. until visible single colonies developed. • b) One colony was picked, using a sterile inoculating loop and used to inoculate sterile 10 ml universals of Mueller II Cation-adjusted broth. Inoculated broths were incubated for approx 18 hrs at 37° C. • c) Following overnight incubation the culture was diluted with fresh sterile Mueller II cation adjusted broth to an OD650 nm of approximately 0.1, equivalent to approx […] (cell number and OD650 nm was determined and optimised prior to commencement of MIC testing). This is the seed broth which was used to inoculate the test wells in each plate. The seed culture was held at 4° C. until required for plating. • d) Stock solutions of each test extract were prepared so that their concentration is 64 μg/ml in the appropriate formulation in Mueller II cation adjusted broth. Once the extract was added to the broth it was mixed using a vortex mixer for approx 30 sec to ensure homogenous dispersion throughout the broth solution. • e) A 96 well microtitre plate was then set up as follows: To all wells, except the first in every row, 100 μl of sterile Mueller II cation adjusted broth was added. The plate was prepared up to 24 hrs in advance and held at −20° C. until ready for use. • f) If the plate was prepared in advance, it needed to be thawed at room temperature. […]

[2] = test system: Escherichia coli (NZRN 2220, ATCC 291214); test: MIC assay against E. coli
Experimental: (§1) To exemplify the concept of the present invention, the in vitro activity of three novel plant extracts melaleuca oil, manuka oil, and black walnut hull extract in a specific ratio described herein, were tested against an isolate of various microbes (methicillin-sensitive S. aureus, methicillin-resistant S. aureus, S. pyogenes, S. agalactiae, S. uberis, E. coli, C. albicans) from a reference library.
(§2) MIC90 refers to the minimum inhibitory concentration required to inhibit the growth of 90% of the organisms. The methods and materials used for this preliminary study are outlined in Example 5.
(§3) The test formulation, comprising three novel plant extracts melaleuca oil, manuka oil, and black walnut hull extract in a specific ratio described herein, was serially diluted to give 11 different concentrations. The diluted samples were then incubated with individual microbes, and the MICs were determined as the lowest concentration of test substance that inhibited the growth of the microbe as determined by measurement of OD650 nm using a VersaMax 96 well plate reader. […]

[3] = test system: Staphylococcus aureus (NZCC 4410, ATCC 33591, Strain 328 methicillin resistant); test: MIC assay against methicillin-resistant S. aureus
Experimental: as §1, §2, §3

[4] = test system: Streptococcus agalactiae (NZRM 2721, ATCC 27956); test: MIC assay against S. agalactiae
Experimental: as §1, §2, §3

[5] = test system: Staphylococcus aureus (NZCC865, ATCC12598); test: MIC assay against S. aureus (methicillin-sensitive)
Experimental: as §1, §2, §3

[6] = test system: Streptococcus uberis (NZRM 2266 NCTC 3858); test: MIC assay against S. uberis
Experimental: as §1, §2, §3

Streptococcus pyogenes = test: MIC assay against S. pyogenes
Experimental: as §1, §2, §3

Compound: O=C(O)c1cn(C2CC2)c2cc(N3CCNCC3)c(F)cc2c1=O [G. ciprofloxacin, ciprofloxacin]
- MIC90 ([1]; 18 h, read-out: MIC90 18 h): 0.049 µg/mL (≈ 0.148 µM)
- MIC90 ([1]; 24 h, read-out: MIC90 24 h): 0.098 µg/mL (≈ 0.296 µM)
- MIC antibiotic reference 16 h ([2]; 16 h): 0.049 µg/mL (≈ 0.148 µM)
- MIC antibiotic reference 24 h ([2]; 24 h): 0.049 µg/mL (≈ 0.148 µM)

Compound: CCN1CCN(c2cc3c(cc2F)c(=O)c(C(=O)O)cn3C2CC2)CC1 [Enfrofloxacin]
- MIC antibiotic reference 24 h ([3]; 24 h): 0.05 µg/mL (≈ 0.139 µM)

Compound: CC1=C(C(=O)O)N2C(=O)[C@@H](NC(=O)[C@H](N)c3ccccc3)[C@H]2SC1 [Cephalexin, Cephalexin hydrate]
- MIC antibiotic reference 16 h ([4]; 16 h): 0.098 µg/mL
- MIC antibiotic reference 24 h ([4]; 24 h): 0.098 µg/mL

Compound: C[C@H]1c2cccc(O)c2C(=O)C2=C(O)[C@]3(O)C(=O)C(C(N)=O)=C(O)[C@@H](N(C)C)[C@@H]3[C@@H](O)[C@@H]21 [Doxycycline]
- MIC antibiotic reference 16 h ([3]; 16 h): 0.05 µg/mL (≈ 0.113 µM)

Compound: [H]/N=C(/N)N[C@H]1[C@H](O)[C@@H](O)[C@H](O[C@@H]2O[C@@H](C)[C@](O)(C=O)[C@H]2O[C@@H]2O[C@@H](CO)[C@H](O)[C@@H](O)[C@@H]2NC)[C@@H](N/C(N)=N\[H])[C@@H]1O [Streptomycin]
- MIC antibiotic reference 16 h [5]: 0.003 µg/mL (≈ 0.00516 µM)

Compound: gentamicin [F. gentamicin]
- MIC90 18 h ([1]; 18 h): 0.098 µg/mL
- MIC90 24 h ([1]; 24 h): 3.125 µg/mL

Compound: CC1(C)S[C@@H]2[C@H](NC(=O)Cc3ccccc3)C(=O)N2[C@H]1C(=O)O [Penicillin, Penicillin G sodium salt]
- MIC antibiotic reference 16 h ([6]; 16 h): 0.049 µg/mL
- MIC antibiotic reference 24 h ([6]; 24 h): 0.049 µg/mL
- MIC antibiotic reference 16 h (Streptococcus pyogenes; 16 h): 0.049 µg/mL
- MIC antibiotic reference 24 h (Streptococcus pyogenes; 24 h): 0.049 µg/mL

Reference: patent US20130337095A1, “ANTIMICROBIAL COMPOSITION AND ITS METHOD OF USE” (Waikatolink Limited, priority 2012, published 2013)
